Measurements from PubChem BioAssay (NCI).
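Each compound was tested at five concentrations against cells in 96-well plates for 48 hours. GI50 marks 50% less growth. TGI: total growth inhibition.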

How the values were obtained:
Test in all cases: DTP human tumour cell line panel, 48 h
T-47D breast = system: T-47D breast
HS 578T breast = system: HS 578T breast
ACHN renal = system: ACHN renal
HT29 colon = system: HT29 colon
OVCAR-4 ovarian = system: OVCAR-4 ovarian
SNB-19 CNS = system: SNB-19 CNS
BT-549 breast = system: BT-549 breast
EKVX NSCLC = system: EKVX NSCLC
LOX IMVI melanoma = system: LOX IMVI melanoma
HCT-15 colon = system: HCT-15 colon
KM12 colon = system: KM12 colon
OVCAR-8 ovarian = system: OVCAR-8 ovarian
M14 melanoma = system: M14 melanoma
NCI/ADR-RES ovarian = system: NCI/ADR-RES ovarian
SW-620 colon = system: SW-620 colon
MALME-3M melanoma = system: MALME-3M melanoma
NCI-H23 lung = system: NCI-H23 lung
MDA-MB-468 breast = system: MDA-MB-468 breast
DU-145 prostate = system: DU-145 prostate
SN12C renal = system: SN12C renal
HOP-92 NSCLC = system: HOP-92 NSCLC
NCI-H522 lung = system: NCI-H522 lung
SNB-75 CNS = system: SNB-75 CNS
UACC-257 melanoma = system: UACC-257 melanoma
MDA-MB-435 = system: MDA-MB-435
SK-MEL-28 melanoma = system: SK-MEL-28 melanoma
SR leukemia = system: SR leukemia
SF-268 CNS = system: SF-268 CNS
HOP-62 NSCLC = system: HOP-62 NSCLC
HCT-116 colon = system: HCT-116 colon
SK-OV-3 ovarian = system: SK-OV-3 ovarian
MOLT-4 leukemia = system: MOLT-4 leukemia
MDA-MB-231 breast = system: MDA-MB-231 breast
OVCAR-5 ovarian = system: OVCAR-5 ovarian
U251 CNS = system: U251 CNS
SF-295 CNS = system: SF-295 CNS
PC-3 prostate = system: PC-3 prostate
IGROV1 ovarian = system: IGROV1 ovarian
RXF 393 renal = system: RXF 393 renal
HCC-2998 colon = system: HCC-2998 colon
RPMI-8226 leukemia = system: RPMI-8226 leukemia
NCI-H460 lung = system: NCI-H460 lung
COLO 205 colon = system: COLO 205 colon
SK-MEL-5 melanoma = system: SK-MEL-5 melanoma
UACC-62 melanoma = system: UACC-62 melanoma
SF-539 CNS = system: SF-539 CNS
UO-31 renal = system: UO-31 renal
SK-MEL-2 melanoma = system: SK-MEL-2 melanoma
K-562 leukemia = system: K-562 leukemia
786-0 renal = system: 786-0 renal
NCI-H226 lung = system: NCI-H226 lung
CCRF-CEM leukemia = system: CCRF-CEM leukemia
TK-10 renal = system: TK-10 renal
A549 NSCLC = system: A549 NSCLC
MCF7 breast = system: MCF7 breast
OVCAR-3 ovarian = system: OVCAR-3 ovarian
A498 renal = system: A498 renal
CAKI-1 renal = system: CAKI-1 renal
HL-60(TB) leukemia = system: HL-60(TB) leukemia

`NS(=O)(=O)c1ccc(N=Nc2c(O)n(CC(=O)Nc3ccccc3Cl)c3ccccc23)cc1` gave a GI50 (T-47D breast) of 2.95 µM, a TGI (T-47D breast) of 34.5 µM and a GI50 (HS 578T breast) of 3.23 µM. For the same molecule, the TGI (HS 578T breast) was over 100 µM, the GI50 (ACHN renal) was 2.21 µM and the TGI (ACHN renal) was 6.89 µM. For the same molecule, the GI50 (HT29 colon) was 2.04 µM, the TGI (HT29 colon) was 4.11 µM and the GI50 (OVCAR-4 ovarian) was 4.57 µM. The TGI (OVCAR-4 ovarian) was 55.5 µM, the GI50 (SNB-19 CNS) was 4.74 µM and the TGI (SNB-19 CNS) was 24.7 µM. For the same molecule, the GI50 (BT-549 breast) was 2.26 µM, the TGI (BT-549 breast) was 6.79 µM and the GI50 (EKVX NSCLC) was 4.09 µM. For the same molecule, the TGI (EKVX NSCLC) was 36.1 µM, the GI50 (LOX IMVI melanoma) was 3.28 µM and the TGI (LOX IMVI melanoma) was 15.1 µM. For the same molecule, the GI50 (HCT-15 colon) was 3 µM, the TGI (HCT-15 colon) was 15.4 µM and the GI50 (KM12 colon) was 2.93 µM. The TGI (KM12 colon) was 12 µM, the GI50 (OVCAR-8 ovarian) was 2.49 µM and the TGI (OVCAR-8 ovarian) was 6.85 µM. It also gave a GI50 (M14 melanoma) of 3.33 µM, a TGI (M14 melanoma) of 30.5 µM and a GI50 (NCI/ADR-RES ovarian) of 3.93 µM. The TGI (NCI/ADR-RES ovarian) was 50.3 µM, the GI50 (SW-620 colon) was 2.93 µM and the TGI (SW-620 colon) was 10.9 µM. The GI50 (MALME-3M melanoma) was 1.89 µM, the TGI (MALME-3M melanoma) was 6.91 µM and the GI50 (NCI-H23 lung) was 3.19 µM. The TGI (NCI-H23 lung) was 12.2 µM, the GI50 (MDA-MB-468 breast) was 1.81 µM and the TGI (MDA-MB-468 breast) was 3.8 µM. It also gave a GI50 (DU-145 prostate) of 5.34 µM, a TGI (DU-145 prostate) of 23.1 µM and a GI50 (SN12C renal) of 3.03 µM. For the same molecule, the TGI (SN12C renal) was 16.1 µM, the GI50 (HOP-92 NSCLC) was 2.15 µM and the TGI (HOP-92 NSCLC) was 6.45 µM. The GI50 (NCI-H522 lung) was 2.78 µM, the TGI (NCI-H522 lung) was 15.3 µM and the GI50 (SNB-75 CNS) was 2.01 µM. The TGI (SNB-75 CNS) was 14.4 µM, the GI50 (UACC-257 melanoma) was 2.89 µM and the TGI (UACC-257 melanoma) was 9.83 µM. For the same molecule, the GI50 (MDA-MB-435) was 2.61 µM, the TGI (MDA-MB-435) was 19.4 µM and the GI50 (SK-MEL-28 melanoma) was 2.96 µM. For the same molecule, the TGI (SK-MEL-28 melanoma) was 12.5 µM, the GI50 (SR leukemia) was 2.82 µM and the TGI (SR leukemia) was over 100 µM. It also gave a GI50 (SF-268 CNS) of 3.19 µM, a TGI (SF-268 CNS) of 21.9 µM and a GI50 (HOP-62 NSCLC) of 2.75 µM. The TGI (HOP-62 NSCLC) was 12.7 µM, the GI50 (HCT-116 colon) was 2.94 µM and the TGI (HCT-116 colon) was 12.4 µM. The GI50 (SK-OV-3 ovarian) was 2.54 µM, the TGI (SK-OV-3 ovarian) was 8.74 µM and the GI50 (MOLT-4 leukemia) was 3.19 µM. It also gave a TGI (MOLT-4 leukemia) of 31.8 µM, a GI50 (MDA-MB-231 breast) of 3.34 µM and a TGI (MDA-MB-231 breast) of 16 µM. It also gave a GI50 (OVCAR-5 ovarian) of 4.3 µM, a TGI (OVCAR-5 ovarian) of 22.7 µM and a GI50 (U251 CNS) of 2.81 µM. It also gave a TGI (U251 CNS) of 9.62 µM, a GI50 (SF-295 CNS) of 1.67 µM and a TGI (SF-295 CNS) of 3.58 µM. For the same molecule, the GI50 (PC-3 prostate) was 2.76 µM, the TGI (PC-3 prostate) was 29.2 µM and the GI50 (IGROV1 ovarian) was 4.59 µM. For the same molecule, the TGI (IGROV1 ovarian) was 19.1 µM, the GI50 (RXF 393 renal) was 2.14 µM and the TGI (RXF 393 renal) was 5.74 µM. For the same molecule, the GI50 (HCC-2998 colon) was 2.38 µM, the TGI (HCC-2998 colon) was 6.35 µM and the GI50 (RPMI-8226 leukemia) was 3.06 µM. The TGI (RPMI-8226 leukemia) was over 100 µM, the GI50 (NCI-H460 lung) was 3.1 µM and the TGI (NCI-H460 lung) was 10.8 µM. It also gave a GI50 (COLO 205 colon) of 2.05 µM, a TGI (COLO 205 colon) of 4.14 µM and a GI50 (SK-MEL-5 melanoma) of 2.12 µM. For the same molecule, the TGI (SK-MEL-5 melanoma) was 5.11 µM, the GI50 (UACC-62 melanoma) was 1.81 µM and the TGI (UACC-62 melanoma) was 5.88 µM. It also gave a GI50 (SF-539 CNS) of 1.7 µM, a TGI (SF-539 CNS) of 4.17 µM and a GI50 (UO-31 renal) of 1.72 µM. It also gave a TGI (UO-31 renal) of 6.81 µM, a GI50 (SK-MEL-2 melanoma) of 3.95 µM and a TGI (SK-MEL-2 melanoma) of 21.1 µM. The GI50 (K-562 leukemia) was 3.66 µM, the TGI (K-562 leukemia) was over 100 µM and the GI50 (786-0 renal) was 3.26 µM. It also gave a TGI (786-0 renal) of 12 µM, a GI50 (NCI-H226 lung) of 2.5 µM and a TGI (NCI-H226 lung) of 8.45 µM. For the same molecule, the GI50 (CCRF-CEM leukemia) was 3.58 µM, the TGI (CCRF-CEM leukemia) was 23.2 µM and the GI50 (TK-10 renal) was 10.8 µM. The TGI (TK-10 renal) was 34.5 µM, the GI50 (A549 NSCLC) was 2.91 µM and the TGI (A549 NSCLC) was 10.3 µM. For the same molecule, the GI50 (MCF7 breast) was 1.94 µM, the TGI (MCF7 breast) was 4.63 µM and the GI50 (OVCAR-3 ovarian) was 2.56 µM. The TGI (OVCAR-3 ovarian) was 11.5 µM, the GI50 (A498 renal) was 3.64 µM and the TGI (A498 renal) was 16 µM. The GI50 (CAKI-1 renal) was 1.89 µM, the TGI (CAKI-1 renal) was 8.37 µM and the GI50 (HL-60(TB) leukemia) was 2.38 µM. The TGI (HL-60(TB) leukemia) was 7.68 µM.
